Data reported in US20210179577A1, “AROMATIC SULFONAMIDE DERIVATIVES FOR THE TREATMENT OF ISCHEMIC STROKE” (Bayer Aktiengesellschaft, priority 2017, published 2021).
pIC50: −log10 of the molar value.

Legend:
Format in all cases: cell-based
[1] = biological target: T1, rat P2X4 (Rattus norvegicus, UniProt P51577); test: FLIPR assay, rat P2X4 1321N1 Astrocytoma Cells; conditions: 1321N1 Astrocytoma cells
T1 construct: expressed in transfected cells; host or cells: 1321N1 astrocytoma cells
T1 sequence (P51577 1-388): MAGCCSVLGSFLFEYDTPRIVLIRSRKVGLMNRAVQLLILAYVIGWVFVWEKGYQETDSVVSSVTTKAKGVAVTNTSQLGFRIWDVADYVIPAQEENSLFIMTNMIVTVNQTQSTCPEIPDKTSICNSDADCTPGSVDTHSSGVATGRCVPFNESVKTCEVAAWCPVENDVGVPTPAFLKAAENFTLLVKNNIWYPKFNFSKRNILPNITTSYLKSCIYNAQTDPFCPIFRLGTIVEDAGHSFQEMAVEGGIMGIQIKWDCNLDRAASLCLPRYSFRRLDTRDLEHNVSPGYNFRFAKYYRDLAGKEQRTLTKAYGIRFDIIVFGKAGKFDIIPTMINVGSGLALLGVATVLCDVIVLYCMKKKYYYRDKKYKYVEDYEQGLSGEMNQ
Method: (§1) 1321N1 Astrocytoma cells stably expressing human P2X4 or rat P2X4 or mouse P2X4 were plated in Collagen ITO-treated microplate at a seeding density of 10000 cells/well and incubated overnight. P2X4 function was assessed by measuring intracellular calcium changes using the calcium-chelating dye Fluo8-AM (Molecular Devices) on a fluorescent imaging plate reader (FLEX/FLIPR station; Molecular Devices). On the day of the assay, the medium was removed and the cells were incubated for 30 min at […] and 5% CO2 in 30 μL of dye buffer (Hank's balanced salt solution, 10 mM HEPES, 1.8 mM CaCl2, 1 mM MgCl2, 2 mM probenecid, 5 mM D-glucose monohydrate, 5 μM Fluo8-AM, pH=7.4). Compounds diluted in probenecid buffer (Hank's balanced salt solution, 10 mM HEPES, 1.8 mM CaCl2, 1 mM MgCl2, 2 mM probenecid, 5 mM D-glucose monohydrate, pH=7.4) were added in a volume of 10 μL and allowed to incubate for 30 min at room temperature. The final assay DMSO concentration was 0.25%. The agonist, Mg-ATP (Sigma), was added in a volume of 10 μL at a concentration representing the EC80 value. EC80 was determined to be 0.5 μM for human and mouse P2X4 and 5 μM for rat P2X4. The fluorescence was measured for an interval of 120 sec at 2 sec intervals. The excitation and emission wavelengths used to monitor fluorescence were 470-495 nm and 515-575 nm, respectively. The data was analyzed based on the increase in peak relative fluorescence units (RFU) compared to the basal fluorescence and the data was normalized to the agonist control. The compounds were tested in triplicates per plate and mean values were plotted in Excel XLFit to determine IC50 values, percentage of maximal inhibition and the Hill coefficients.

[2] = biological target: T2, human P2X4 (Homo sapiens, UniProt Q99571); test: FLIPR assay, human P2X4 1321N1 Astrocytoma Cells; set-up: expressed in transfected cells; conditions: 1321N1 Astrocytoma cells
T2 sequence (Q99571 1-388): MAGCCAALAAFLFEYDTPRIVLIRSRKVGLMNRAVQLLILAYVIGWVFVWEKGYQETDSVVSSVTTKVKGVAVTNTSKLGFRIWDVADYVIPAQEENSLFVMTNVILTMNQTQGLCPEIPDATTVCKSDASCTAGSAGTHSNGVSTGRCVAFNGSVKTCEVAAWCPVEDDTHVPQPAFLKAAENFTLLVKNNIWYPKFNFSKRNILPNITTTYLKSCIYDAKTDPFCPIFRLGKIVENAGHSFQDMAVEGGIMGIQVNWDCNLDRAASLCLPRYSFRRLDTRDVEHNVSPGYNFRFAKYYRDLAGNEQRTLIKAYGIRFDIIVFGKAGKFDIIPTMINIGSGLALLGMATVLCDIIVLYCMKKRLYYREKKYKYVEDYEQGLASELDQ
Method: as §1

[3] = biological target: T3, mouse P2X4 (Mus musculus, UniProt Q9JJX6); test: FLIPR assay, mouse P2X4 1321N1 Astrocytoma Cells; conditions: 1321N1 Astrocytoma cells
T3 construct: expressed in transfected cells; host or cells: 1321N1 astrocytoma cells
T3 sequence (Q9JJX6 1-388): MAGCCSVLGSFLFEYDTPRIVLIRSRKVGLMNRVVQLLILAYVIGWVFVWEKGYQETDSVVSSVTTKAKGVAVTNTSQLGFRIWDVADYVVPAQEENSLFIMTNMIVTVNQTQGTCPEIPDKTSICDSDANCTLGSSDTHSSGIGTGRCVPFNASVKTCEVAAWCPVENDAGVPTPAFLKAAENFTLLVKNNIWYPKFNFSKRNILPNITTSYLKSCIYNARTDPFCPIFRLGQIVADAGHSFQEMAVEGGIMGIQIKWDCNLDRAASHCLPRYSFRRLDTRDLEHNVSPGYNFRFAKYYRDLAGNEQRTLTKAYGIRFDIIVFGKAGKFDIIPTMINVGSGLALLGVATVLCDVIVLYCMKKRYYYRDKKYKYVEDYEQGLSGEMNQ
Method: as §1

[4] = biological target: T2, human P2X4; test: Human P2X4 HEK Cell FLIPR Assay; set-up: expressed in transfected cells; host or cells: HEK293; conditions: HEK293 cells, agonist Bz-ATP at EC80
Method: HEK293 cells stably expressing human P2X4 were plated in poly-D-lysine-coated 384-well plates at a seeding density of 30000 cells/well and incubated overnight. P2X4 function was assessed by measuring intracellular calcium changes using the calcium-chelating dye Fluo8-AM (Molecular Devices) on a fluorescent imaging plate reader (FLEX/FLIPR station; Molecular Devices). On the day of the assay, the medium was removed and the cells were incubated for 30 min at 37° C. and 5% CO2 in 30 μL of dye buffer (Hank's balanced salt solution, 10 mM HEPES, 1.8 mM CaCl2, 1 mM MgCl2, 2 mM probenecid, 5 mM D-glucose monohydrate, 5 μM Fluo8-AM, pH=7.4). Compounds diluted in probenecid buffer (Hank's balanced salt solution, 10 mM HEPES, 1.8 mM CaCl2, 1 mM MgCl2, 2 mM probenecid, 5 mM D-glucose monohydrate, pH=7.4) were added in a volume of 10 μL and allowed to incubate for 30 min at room temperature. The final assay DMSO concentration was 0.5%. The agonist, Bz-ATP (Tocris), was added in a volume of 10 μL at a concentration representing the EC80 value. The EC80 value of Bz-ATP was determined each assay day prior to compound profiling. The fluorescence was measured for an interval of 120 sec at 2 sec intervals. The excitation and emission wavelengths used to monitor fluorescence were 470-495 nm and 515-575 nm, respectively. The data was analyzed based on the increase in peak relative fluorescence units (RFU) compared to the basal fluorescence and the data was normalized to the agonist control. The compounds were tested in triplicates per plate and mean values were plotted in Excel XL-Fit to determine IC50 values, percentage of maximal inhibition and the Hill coefficients.

[5] = biological target: T4, hP2X4 (Homo sapiens, UniProt Q99571); test: Human P2X4 HEK Cell Electrophysiology Assay B (QPatch); conditions: ATP 5 microM, -90 mV; read-out: Human P2X4 HEK Cells (QPatch Electrophysiology) avg IC50
T4 construct: expressed in transfected cells; host or cells: HEK-293 mito-Photina, clone 2a/4
T4 sequence (Q99571 1-388): T2 sequence (Q99571 1-388)
Method: Cell culture conditions: HEK-293 mito-Photina pcDNA3(neo-)/pPURO N/pcDNA3_P2RX4, clone 2a/4 (HEK-293 mito-Photina/hP2RX4) cells were cultured in EMEM Minimum Essential Medium Eagle with Earl's salts Balanced Salt Solution (BioWhittaker cat. BE12-125F) supplemented with 5 mL of 200 mM Ultraglutaminel (BioWhittaker cat. BE17-605E/U1), 5 mL of 100× Penicillin/Streptomycin (BioWhittaker cat. DE17-602E; final concentration 1%), 4 mL of 50 mg/mL G418 (Sigma cat. G8168-100 mL; final concentration 400 μg/mL), 10 μL of 10 mg/mL Puromicin (InvivoGen cat. ant-pr-1; final concentration 0.2 μg/mL) and 50 mL of Fetal Bovine Serum (Sigma cat. F7524; final concentration 10%).
Experimentalprotocol: HEK-293 cell lines are seeded 72 or 96 hours before experiment, at a concentration of 5 or 2.5 million cells, respectively onto a T225 flask. Just before the experiments cells are washed twice with D-PBS w/o Ca2+/Mg2+(Euroclone cat. ECB4004L) and detached from the flask with trypsin-EDTA (Sigma, cat. T4174 diluted 1/10). Cells are then re-suspended in the suspension solution: 25 mL EX-CELL ACF CHO medium (Sigma, cat. C5467); 0.625 mL HEPES (BioWhittaker, cat. BE17-737E); 0.25 mL of 100× Penicillin/Streptomycin (BioWhittaker, cat. DE17-602E), 0.1 mL of Soybean Trypsin Inhibitor 10 mg/mL (Sigma, cat. T6522) and placed on the QPatch 16X.
Compound preparation and storage: Compound stock solutions (10 mM; 100% DMSO; stored at −20° C.) were used. Fresh solutions from stock (1 or 3 mM, 100% DMSO) were prepared just before the experiments (0.1% final DMSO concentration).
Patch clamp analysis with QPatch16X (FIG. 1): Standard whole-cell voltage clamp experiments are performed at room temperature using the multihole technology.
For the voltage clamp experiments on hP2X4, data are sampled at 2 KHz. After establishment of the seal and the passage in the whole cell configuration, the cells are held at −90 mV and the hP2X4 current is evoked by the agonist in the absence (vehicle period, i.e. 0.1% DMSO) or in the presence of the compound under investigation at increasing concentrations; see the application protocol in FIG. 1.
Output: the maximum inward current induced by the agonist (ATP 5 microM).
The intracellular solution contained (mM) 135 CsF, 10 NaCl, 1 EGTA, 10 HEPES (pH 7.2 with CsOH) whereas the extracellular solution (mM) 145 NaCl, 4 KCl, 0.5 MgCl2, 1 CaCl2, […], 10 Glucose (pH 7.4 with NaOH).
For data collection, the Sophion software was used and the analysis was performed off-line using Excel and GraphPad Prism.
When possible, i.e. when the % of inhibition with the highest concentration tested was more than 50%, the dose-response curves data were fitted with the following equation:
[X is log of concentration; Y is normalized response (100% down to 0%, decreasing as X increases); Log IC50 same log units as X; HillSlope is unitless slope factor or hill slope]

EC80 of the agonist, rat P2X4 [1] [nM]	EC80 of the agonist, human P2X4 [2] [nM]	EC80 of the agonist, mouse P2X4 [3] [nM]	pIC50 [4]	pIC50 [5]	Compound
5000	500	500	–	–	Nc1ncnc2c1ncn2[C@@H]1O[C@H](COP(=O)(O)OP(=O)([O-])OP(=O)([O-])O)[C@@H](O)[C@H]1O.[Mg+2] [Mg-ATP, reference compound]
–	–	–	5.91	5.59	NS(=O)(=O)c1cc(NC(=O)Cc2ccccc2F)cnc1-n1cc(C(F)(F)F)cn1 [Example 381, 2-(2-Fluorophenyl)-N-{5-sulfamoyl-6-[4-(trifluoromethyl)-1H-pyrazol-1-yl]pyridin-3-yl}acetamide]
–	–	–	6.85	6.71	NS(=O)(=O)c1cc(NC(=O)Cc2ccccc2F)ccc1-n1cc(C(F)(F)F)cn1 [Example 20, 2-(2-Fluorophenyl)-N-{3-sulfamoyl-4-[4-(trifluoromethyl)-1H-pyrazol-1-yl]phenyl}-acetamide]
